Measurements published in patent US11040112B2, “Lipids and lipid nanoparticle formulations for delivery of nucleic acids” (Acuitas Therapeutics, Inc., priority 2015, dated 2021).

How the values were obtained:
[1] = tested on: luciferase expression in the liver; assay: Luciferase mRNA in vivo evaluation: luciferase expression in the liver after tail vein injection of FLuc mRNA lipid nanoparticles; design: species or system mice; details: liver 4 hours after administration; for Liver Luc @ 0.3 mg/kg (ng luc/g liver): 0.3 mg mRNA/kg; for Liver Luc @ 1.0 mg/kg (ng luc/g liver): 1.0 mg mRNA/kg
Protocol: Cationic lipid, DSPC, cholesterol and PEG-lipid were solubilized in ethanol at a molar ratio of 50:10:38.5:1.5 or 47.5:10:40.8:1.7. Lipid nanoparticles (LNP) were prepared at a total lipid to mRNA weight ratio of approximately 10:1 to 30:1. Briefly, the mRNA was diluted to 0.2 mg/mL in 10 to 50 mM citrate buffer, pH 4. Syringe pumps were used to mix the ethanolic lipid solution with the mRNA aqueous solution at a ratio of about 1:5 to 1:3 (vol/vol) with total flow rates above 15 ml/min. The ethanol was then removed and the external buffer replaced with PBS by dialysis. Finally, the lipid nanoparticles were filtered through a 0.2 μm pore sterile filter. Lipid nanoparticle particle size was approximately 55-95 nm diameter, and in some instances approximately 70-90 nm diameter as determined by quasi-elastic light scattering using a Malvern Zetasizer Nano ZS (Malvern, UK).
Studies were performed in 6-8 week old female C57BL/6 mice (Charles River) 8-10 week old CD-1 (Harlan) mice (Charles River) according to guidelines established by an institutional animal care committee (ACC) and the Canadian Council on Animal Care (CCAC). Varying doses of mRNA-lipid nanoparticle were systemically administered by tail vein injection and animals euthanized at a specific time point (e.g 4 hrs) post-administration. Liver and spleen were collected in pre-weighed tubes, weights determined, immediately snap frozen in liquid nitrogen and stored at −80° C. until processing for analysis.
For liver, approximately 50 mg was dissected for analyses in a 2 mL FastPrep tubes (MP Biomedicals, Solon Ohio). ¼″ ceramic sphere (MP Biomedicals) was added to each tube and 500 μL of Glo Lysis Buffer—GLB (Promega, Madison Wis.) equilibrated to room temperature was added to liver tissue. Liver tissues were homogenized with the FastPrep24 instrument (MP Biomedicals) at 2×6.0 m/s for 15 seconds. Homogenate was incubated at room temperature for 5 minutes prior to a 1:4 dilution in GLB and assessed using SteadyGlo Luciferase assay system (Promega). Specifically, 50 μL of diluted tissue homogenate was reacted with 50 μL of SteadyGlo substrate, shaken for 10 seconds followed by 5 minute incubation and then quantitated using a CentroXS^3 LB 960 luminometer (Berthold Technologies, Germany). The amount of protein assayed was determined by using the BCA protein assay kit (Pierce, Rockford Ill.). Relative luminescence units (RLU) were then normalized to total ug protein assayed. To convert RLU to ng luciferase a standard curve was generated with QuantiLum Recombinant Luciferase (Promega). Based in the data provided in FIG. 1, the four-hour time point was chosen for efficacy evaluation of the lipid formulations.
The FLuc mRNA (L-6107) from Trilink Biotechnologies will express a luciferase protein, originally isolated from the firefly, Photinus pyralis. FLuc is commonly used in mammalian cell culture to measure both gene expression and cell viability. It emits bioluminescence in the presence of the substrate, luciferin. This capped and polyadenylated mRNA is fully substituted with 5-methylcytidine and pseudouridine.
The cationic lipids shown in Table 2 have previously been tested with nucleic acids. For comparative purposes, these lipids were also used to formulate lipid nanoparticles containing the FLuc mRNA (L-6107) using an in line mixing method, as described in Example 1 and in PCT/US10/22614, which is hereby incorporated by reference in its entirety. […]

[2] = Determination of pKa of formulated lipids in lipid nanoparticles (TNS fluorescence assay); type: physicochemical; details: pKa of cationic lipid in LNP (cationic lipid/DSPC/cholesterol/PEG-lipid 50/10/38.5/1.5 mol %), pH of half-maximal intensity
Protocol: As described elsewhere, the pKa of formulated cationic lipids is correlated with the effectiveness of LNPs for delivery of nucleic acids (see Jayaraman et al, Angewandte Chemie, International Edition (2012), 51(34), 8529-8533; Semple et al, Nature Biotechnology 28, 172-176 (2010)). The preferred range of pKa is ˜5 to ˜7. […] Lipid nanoparticles comprising of cationic lipid/DSPC/cholesterol/PEG-lipid (50/10/38.5/1.5 mol %) in PBS at a concentration of 0.4 mM total lipid are prepared using the in-line process as described in Example 1. TNS was prepared as a 100 μM stock solution in distilled water. Vesicles were diluted to 24 μM lipid in 2 mL of buffered solutions containing, 10 mM HEPES, 10 mM MES, 10 mM ammonium acetate, 130 mM NaCl, where the pH ranged from 2.5 to 11. An aliquot of the TNS solution was added to give a final concentration of 1 μM and following vortex mixing fluorescence intensity was measured at room temperature in a SLM Aminco Series 2 Luminescence Spectrophotometer using excitation and emission wavelengths of 321 nm and 445 nm. A sigmoidal best fit analysis was applied to the fluorescence data and the pKa was measured as the pH giving rise to half-maximal fluorescence intensity (see FIG. 2).

[3] = Lipid Ratio A: 50% cationic lipid/10% DSPC/38.5% cholesterol/1.5% PEG lipid (PEG-DMA)
[4] = Lipid Ratio B: 47.5% cationic lipid/10% DSPC/40.8% cholesterol/1.7% PEG lipid

Row | Compound | pKa [2] | Liver Luc @ 0.3 mg/kg (ng luc/g liver) [1, 3] [ng luc/g liver] | Liver Luc @ 1.0 mg/kg (ng luc/g liver) [1, 3] [ng luc/g liver] | Liver Luc @ 0.3 mg/kg (ng luc/g liver) [1, 4] [ng luc/g liver] | Liver Luc @ 1.0 mg/kg (ng luc/g liver) [1, 4] [ng luc/g liver]
1 | CCCCCCCCC(CCCCCC)COC(=O)CCCCCN(CCCO)CCCCCC(=O)OCC(CCCCCC)CCCCCCCC (stereo not drawn) [Compound 16] | 6.31 | 344 ± 133 | 2633 ± 1140 |  | 
2 | CCCCCCCCC(CCCCCC)C(=O)OCCCCN(CCCCO)CCCCOC(=O)C(CCCCCC)CCCCCCCC (stereo not drawn) [Compound 4] | 5.6 | 378 ± 82 | 1952 ± 940 |  | 
3 | CCCCCCCCC(CCCCCC)C(=O)OCCCCCCN(CCO)CCCCCCOC(=O)C(CCCCCC)CCCCCCCC (stereo not drawn) [Compound 1] | 5.89 | 467 ± 72 | 3780 ± 210 |  | 
4 | CCCCCCCCC(CCCCCC)COC(=O)CCCCN(CCCCO)CCCCC(=O)OCC(CCCCCC)CCCCCCCC (stereo not drawn) [Compound 15] | 6.14 | 247 ± 25 | 1633 ± 449 |  | 
5 | CCCCCCC(CCCC)C(=O)OCCCCCCCCCN(CCCO)CCCCCCCCCOC(=O)C(CCCC)CCCCCC (stereo not drawn) [Compound 45] | 6.25 |  |  | 1026 ± 199 | 8806 ± 2836
6 | CCCCCCCCC(CCCCCC)COC(=O)CCCCCCCN(CCCCO)CCCCCCCC(=O)OCC(CCCCCC)CCCCCCCC (stereo not drawn) [Compound 20] | 6.36 |  |  | 691 ± 150 | 4279 ± 2226
7 | CCCCCCCCC(CCCCCC)C(=O)OCCCCN(CCCO)CCCCOC(=O)C(CCCCCC)CCCCCCCC (stereo not drawn) [Compound 5] | 5.59 | 183 ± 45 | 713 ± 298 |  | 
8 | CCCCCCCCC(CCCCCC)COC(=O)CCCCCN(CCCCO)CCCCCC(=O)OCC(CCCCCC)CCCCCCCC (stereo not drawn) [Compound 17] | 6.28 | 275 ± 139 | 1554 ± 761 |  | 
9 | CCCCCCCCC(CCCCCC)C(=O)OCCCCN(CCO)CCCCOC(=O)C(CCCCCC)CCCCCCCC (stereo not drawn) [Compound 6] | 5.42 | 122 ± 49 | 520 ± 365 |  | 
10 | CCCCCCCCC(CCCCCC)COC(=O)CCCCCCCN(CCO)CCCCCCCC(=O)OCC(CCCCCC)CCCCCCCC (stereo not drawn) [Compound 46] | 6.06 |  |  | 4 ± 2 | 5 ± 3
11 | CCCCCCCCC(CCCCCC)C(=O)OCCCCCCN(CCCCCCOC(=O)C(CCCCCC)CCCCCCCC)CC(O)CO (stereo not drawn) [Compound 30] | 6.09 | 49 ± 17 | 237 ± 92 |  | 

Continued, in another order:

Row | pKa [2] | Compound | Liver Luc @ 0.3 mg/kg (ng luc/g liver) [1, 3] [ng luc/g liver] | Liver Luc @ 1.0 mg/kg (ng luc/g liver) [1, 3] [ng luc/g liver] | Liver Luc @ 0.3 mg/kg (ng luc/g liver) [1, 4] [ng luc/g liver] | Liver Luc @ 1.0 mg/kg (ng luc/g liver) [1, 4] [ng luc/g liver]
12 | 5.84 | CCCCCCCCCCC(CCCCCCCC)C(=O)OCCCCCCN(CCCCO)CCCCCCOC(=O)C(CCCCCCCC)CCCCCCCCCC (stereo not drawn) [Compound 26] | 1143 ± 782 | 1238 ± 1686 |  | 
13 | 6.1 | CCCCCCCCC(CCCCCC)C(=O)OCCCCCCCCCN(CCCCO)CCCCCCCCCOC(=O)C(CCCCCC)CCCCCCCC (stereo not drawn) [Compound 22] | 660 ± 184 | 7533 ± 4499 |  | 
14 | 6.05 | CCCCCCCCC(CCCCCC)C(=O)OCCCCCCN(CCCO)CCCCCCOC(=O)C(CCCCCC)CCCCCCCC (stereo not drawn) [Compound 2] | 1195 ± 245 | 10059 ± 3833 |  | 
15 | 5.84 | CCCCCCCCC(CCCCCC)C(=O)OCCCCCCN(CCCCCCO)CCCCCCOC(=O)C(CCCCCC)CCCCCCCC (stereo not drawn) [Compound 8] | 1467 ± 943 | 7230 ± 2290 |  | 
16 | 6.22 | CCCCCCC(CCCC)C(=O)OCCCCCCCCCN(CCCCO)CCCCCCCCCOC(=O)C(CCCC)CCCCCC (stereo not drawn) [Compound 25] | 1648 ± 534 | 13880 ± 5083 |  | 
17 | 6.11 | CCCCCCCCC(CCCCCC)C(=O)OCCCCCCN(CCCCCO)CCCCCCOC(=O)C(CCCCCC)CCCCCCCC (stereo not drawn) [Compound 7] | 1158 ± 136 | 8406 ± 2335 |  | 
18 | 5.98 | CCCCCCCCC(CCCCCC)C(=O)OCCCCCCCCCCCCN(CCCCO)CCCCCCCCCCCCOC(=O)C(CCCCCC)CCCCCCCC (stereo not drawn) [Compound 23] | 137 ± 51 | 487 ± 209 |  | 
19 | 5.77 | CCCCCCCCCCCCC(CCCCCCCCCC)C(=O)OCCCCCCN(CCCCO)CCCCCCOC(=O)C(CCCCCCCCCC)CCCCCCCCCCCC (stereo not drawn) [Compound 27] | 110 ± 42 | 1088 ± 802 |  | 
20 | 5.79 | CCCCCCCCCCCCC(CCCCCCCCCC)C(=O)OCCCCCCN(CCCO)CCCCCCOC(=O)C(CCCCCCCCCC)CCCCCCCCCCCC (stereo not drawn) [Compound 44] |  |  | 23 ± 11 | 342 ± 229
21 | 6.09 | CCCCCCCCC(CCCCCC)C(=O)OCCCCCCN(CCCCO)CCCCCCOC(=O)C(CCCCCC)CCCCCCCC (stereo not drawn) [Compound 3] | 1275 ± 410 | 10643 ± 1858 |  | 
22 | 5.89 | CCCCCCCCCCC(CCCCCCCC)C(=O)OCCCCCCN(CCCO)CCCCCCOC(=O)C(CCCCCCCC)CCCCCCCCCC (stereo not drawn) [Compound 37] | 1244 ± 907 | 2035 ± 498 |  | 
23 | 6.1 | CCCCCCCCC(CCCCCC)C(=O)OCCCCCCCCCCCCN(CCCO)CCCCCCCCCCCCOC(=O)C(CCCCCC)CCCCCCCC (stereo not drawn) [Compound 38] | 60 ± 5 | 365 ± 181 |  | 
